In ChEMBL document CHEMBL1136363, “Rational approaches towards reversible inhibition of type B monoamine oxidase. Design and evaluation of a novel 5H-Indeno[1,2-c]pyridazin-5-one derivative” (Bioorg Med Chem Lett, 2003):

Biological target: T1, Amine oxidase [flavin-containing] A (Homo sapiens, UniProt P21397)
T1 sequence (P21397 whole entry): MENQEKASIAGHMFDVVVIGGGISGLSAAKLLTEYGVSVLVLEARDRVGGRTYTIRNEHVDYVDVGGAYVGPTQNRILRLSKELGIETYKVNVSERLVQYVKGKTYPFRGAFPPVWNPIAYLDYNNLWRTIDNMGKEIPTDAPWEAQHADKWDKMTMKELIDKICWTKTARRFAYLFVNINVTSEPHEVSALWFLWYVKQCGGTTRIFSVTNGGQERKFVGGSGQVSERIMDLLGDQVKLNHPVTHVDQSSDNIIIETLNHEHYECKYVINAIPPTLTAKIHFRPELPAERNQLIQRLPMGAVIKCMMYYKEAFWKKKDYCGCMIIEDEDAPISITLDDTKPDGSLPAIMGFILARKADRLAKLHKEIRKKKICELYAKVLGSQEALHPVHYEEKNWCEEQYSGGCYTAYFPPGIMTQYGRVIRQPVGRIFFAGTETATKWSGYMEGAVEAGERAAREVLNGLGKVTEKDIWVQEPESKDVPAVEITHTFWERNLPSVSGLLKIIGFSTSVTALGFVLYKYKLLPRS
Assay: Inhibitory concentration against Monoamine oxidase A in human placenta.

`Cc1cc2c(nn1)-c1cc(OCCCC(F)(F)F)ccc1C2=O` gave a Ki of ~100 µM.
